# Assay results as given in patent publication US20260294915A1, “COMBINATION THERAPY COMPRISING A MAT2A INHIBITOR AND A TOPOISOMERASE INHIBITOR, A SPLICING INHIBITOR SULFONAMIDE, OR A KIF18 INHIBITOR” (IDEAYA BIOSCIENCES, INC., priority 2023, published 2026).
# Read-outs that look alike come from different tables or passages of the source.
# Experiments:
# Assay in all cases: 10-day proliferation (CTG), equimolar Compound A + SPLAM (Example 4)
# Type in all cases: cell-based
# [1] = test system: NCI-H838; conditions: single agent or 1:1 combo; for IC50: Homo sapiens, read-out: gIC50; for IC80: read-out: gIC80; for IC90: read-out: gIC90
# Protocol: (§1) A 10-day proliferation assay was performed in a panel of 5 MTAP-deficient and 2 wild type non-small cell lung and bladder cancer cell lines. Optimal cell seeding for all cell lines was determined by assessing the growth over a range of seeding densities in a 384-well format to identify conditions that permitted proliferation for 10 days. Cells were then plated at the optimal seeding density and treated with 20-point, two-fold dilution series of Compound A, the splicing inhibitor sulfonamide (SPLAM), or an equimolar combination of Compound A and the SPLAM. Combinations tested included Compound A in combination with four structurally different SPLAMs. Concentrations tested for Compound A and each SPLAM alone or in combination ranged from 0.04 nM to 20,000 nM. A plate of cells was harvested at the time of compound addition to quantify the number of cells at the start of the combination (T0). For cell quantification, the harvested cells were lysed with Promega CellTiter-Glo (CTG) reagent according to the manufacturer's protocol and the chemiluminescent signal was detected on a Synergy Neo plate reader. CTG estimates cell number through detection of cellular ATP levels. Cells were incubated with the drug combinations at 37° C. with 5% CO2 for 10 days. Cells were then lysed with CTG and the chemiluminescent signal was measured.
# (§2) CTG values obtained after the 10-day treatment were background subtracted and expressed as a percent of the T0 value. Data were plotted against compound concentration and fit with a four-parameter equation to generate dose response curves for each single agent and the equimolar combination. Growth ICx (gICx) values ranging from gIC30 to gIC100 were interpolated from the fitted curves. Synergistic growth inhibition was assessed by determination of Combination Index (CI) values at these various points across the titration using the mutually non-exclusive equation [Chou, 1983; Chou, 1981] shown below where A equals the gICx value of Compound A, B equals the gICx value of the SPLAM, and A+B or B+A equals the gICx value of the equimolar combination. A Combination Index value less than 1.0 was considered synergistic.
# [2] = test system: RT112/84; conditions: single agent or 1:1 combo; for IC50: Homo sapiens, read-out: gIC50; for IC80: read-out: gIC80; for IC90: read-out: gIC90
# Protocol: as §1, §2
# [3] = test system: SW900; conditions: single agent or 1:1 combo; for IC50: Homo sapiens, read-out: gIC50; for IC80: read-out: gIC80; for IC90: read-out: gIC90
# Protocol: as §1, §2
# [4] = test system: TCCSUP; conditions: single agent or 1:1 combo; for IC50: Homo sapiens, TCC-SUP, read-out: gIC50; for IC80: read-out: gIC80; for IC90: read-out: gIC90
# Protocol: as §1, §2
# [5] = test system: UMUC5; conditions: single agent or 1:1 combo; for IC50: read-out: gIC50; for IC80: read-out: gIC80; for IC90: read-out: gIC90
# Protocol: as §1, §2
structure (smiles),measurement,setting,value
Nc1nc(=O)n(-c2ccccc2Cl)c2nc(C(F)(F)F)ccc12 [Compound A],gIC30,[1]; 10 days,102 nM
same,gIC40,[1]; 10 days,189 nM
same,gIC60,[1]; 10 days,11.309 µM
same,gIC70,[1]; 10 days,20 µM
same,gIC100,[1]; 10 days,20 µM
same,IC50,"[1]; NCI-H838, 240 h, 10 days",594 nM
same,IC50,[1]; NCI-H838,594 nM
same,gIC30,[1],102 nM
same,gIC40,[1],189 nM
same,gIC60,[1],11.309 µM
same,gIC70,[1],20 µM
same,gIC100,[1],20 µM
same,gIC30,[2]; 10 days,345 nM
same,gIC40,[2]; 10 days,1111 nM
same,gIC60,[2]; 10 days,12.951 µM
same,gIC70,[2]; 10 days,20 µM
same,gIC100,[2]; 10 days,20 µM
same,IC50,"[2]; RT112/84, 240 h, 10 days",3400 nM
same,IC50,[2]; RT112/84,3400 nM
same,gIC30,[2],345 nM
same,gIC40,[2],1111 nM
same,gIC60,[2],12.951 µM
same,gIC70,[2],20 µM
same,gIC100,[2],20 µM
same,gIC30,[3]; 10 days,19.994 µM
same,gIC40,[3]; 10 days,20 µM
same,gIC60,[3]; 10 days,20 µM
same,gIC70,[3]; 10 days,20 µM
same,gIC100,[3]; 10 days,20 µM
same,IC50,"[3]; SW900, 240 h, 10 days",20000 nM
same,IC50,[3]; SW900,20000 nM
same,gIC30,[3],19.994 µM
same,gIC40,[3],20 µM
same,gIC60,[3],20 µM
same,gIC70,[3],20 µM
same,gIC100,[3],20 µM
same,gIC30,[4]; 10 days,14.461 µM
same,gIC40,[4]; 10 days,19.467 µM
same,gIC60,[4]; 10 days,20 µM
same,gIC70,[4]; 10 days,20 µM
same,gIC100,[4]; 10 days,20 µM
same,IC50,"[4]; 240 h, 10 days",20000 nM
same,IC50,[4],20000 nM
same,gIC30,[4],14.461 µM
same,gIC40,[4],19.467 µM
same,gIC60,[4],20 µM
same,gIC70,[4],20 µM
same,gIC100,[4],20 µM
same,IC50,"[5]; 240 h, 10 days",4280 nM
same,gIC30,[5]; 10 days,420 nM
same,gIC40,[5]; 10 days,1291 nM
same,gIC60,[5]; 10 days,13.142 µM
same,gIC70,[5]; 10 days,20 µM
same,gIC100,[5]; 10 days,20 µM
same,gIC30,[5],420 nM
same,gIC40,[5],1291 nM
same,gIC60,[5],13.142 µM
same,gIC70,[5],20 µM
same,gIC100,[5],20 µM
same,IC50,[5],4280 nM
"Cc1ccc(NS(=O)(=O)c2cccc(C#N)c2)c2[nH]cc(C#N)c12 [Compound E7820, 3-cyano-N-(3-cyano-4-methyl-1H-indol-7-yl)benzenesulfonamide]",gIC30,[1]; 10 days,328 nM
same,gIC40,[1]; 10 days,357 nM
same,gIC60,[1]; 10 days,0.425 µM
same,gIC70,[1]; 10 days,0.472 µM
same,gIC100,[1]; 10 days,20 µM
same,IC80,[1]; 10 days,539 nM
same,IC90,[1]; 10 days,666 nM
same,IC50,"[1]; NCI-H838, 240 h, 10 days",388 nM
same,gIC30,[2]; 10 days,213 nM
same,gIC40,[2]; 10 days,237 nM
same,gIC60,[2]; 10 days,0.29 µM
same,gIC70,[2]; 10 days,0.326 µM
same,gIC100,[2]; 10 days,10.429 µM
same,IC80,[2]; 10 days,375 nM
same,IC90,[2]; 10 days,466 nM
same,IC50,"[2]; RT112/84, 240 h, 10 days",262 nM
same,gIC30,[3]; 10 days,0.284 µM
same,gIC40,[3]; 10 days,0.29 µM
same,gIC60,[3]; 10 days,0.303 µM
same,gIC70,[3]; 10 days,0.309 µM
same,gIC100,[3]; 10 days,0.362 µM
same,IC80,[3]; 10 days,318 nM
same,IC90,[3]; 10 days,330 nM
same,IC50,"[3]; SW900, 240 h, 10 days",296 nM
same,gIC30,[4]; 10 days,20 µM
same,gIC40,[4]; 10 days,20 µM
same,gIC60,[4]; 10 days,20 µM
same,gIC70,[4]; 10 days,20 µM
same,gIC100,[4]; 10 days,20 µM
same,IC80,[4]; 10 days,20000 nM
same,IC90,[4]; 10 days,20000 nM
same,IC50,"[4]; 240 h, 10 days",20000 nM
same,IC50,"[5]; 240 h, 10 days",460 nM
same,gIC30,[5]; 10 days,330 nM
same,gIC40,[5]; 10 days,390 nM
same,gIC60,[5]; 10 days,0.547 µM
same,gIC70,[5]; 10 days,0.673 µM
same,gIC100,[5]; 10 days,20 µM
same,IC80,[5]; 10 days,900 nM
same,IC90,[5]; 10 days,1900 nM
"NS(=O)(=O)c1ccc(S(=O)(=O)Nc2cccc3c(Cl)c[nH]c23)cc1 [Indisulam, N-(3-chloro-1H-indol-7-yl)benzene-1,4-disulfonamide]",gIC30,[1]; 10 days,276 nM
same,gIC40,[1]; 10 days,300 nM
same,gIC60,[1]; 10 days,0.355 µM
same,gIC70,[1]; 10 days,0.393 µM
same,gIC100,[1]; 10 days,20 µM
same,IC80,[1]; 10 days,448 nM
same,IC90,[1]; 10 days,551 nM
same,IC50,"[1]; NCI-H838, 240 h, 10 days",325 nM
same,gIC30,[2]; 10 days,249 nM
same,gIC40,[2]; 10 days,273 nM
same,gIC60,[2]; 10 days,0.327 µM
same,gIC70,[2]; 10 days,0.363 µM
same,gIC100,[2]; 10 days,20 µM
same,IC80,[2]; 10 days,414 nM
same,IC90,[2]; 10 days,510 nM
same,IC50,"[2]; RT112/84, 240 h, 10 days",298 nM
same,gIC30,[3]; 10 days,0.295 µM
same,gIC40,[3]; 10 days,0.3 µM
same,gIC60,[3]; 10 days,0.31 µM
same,gIC70,[3]; 10 days,0.315 µM
same,gIC100,[3]; 10 days,0.357 µM
same,IC80,[3]; 10 days,321 nM
same,IC90,[3]; 10 days,331 nM
same,IC50,"[3]; SW900, 240 h, 10 days",305 nM
same,gIC30,[4]; 10 days,20 µM
same,gIC40,[4]; 10 days,20 µM
same,gIC60,[4]; 10 days,20 µM
same,gIC70,[4]; 10 days,20 µM
same,gIC100,[4]; 10 days,20 µM
same,IC80,[4]; 10 days,20000 nM
same,IC90,[4]; 10 days,20000 nM
same,IC50,"[4]; 240 h, 10 days",20000 nM
same,IC50,"[5]; 240 h, 10 days",420 nM
same,gIC30,[5]; 10 days,310 nM
same,gIC40,[5]; 10 days,363 nM
same,gIC60,[5]; 10 days,0.487 µM
same,gIC70,[5]; 10 days,0.574 µM
same,gIC100,[5]; 10 days,20 µM
same,IC80,[5]; 10 days,707 nM
same,IC90,[5]; 10 days,990 nM
